Data as given in publication PMC7985170, “Marine Peptide-N6NH2 and Its Derivative-GUON6NH2 Have Potent Antimicrobial Activity Against Intracellular Edwardsiella tarda in vitro and in vivo” (Frontiers in Microbiology, 2021).
Values after ≈ are worked out from the molar mass of the structure shown. Where a SMILES comes first, the peptide text is derived from it. Bridges are numbered along the chain shown (N, C = ends). The star is where a group is joined. Orn(α-tetramethylguanidino) = CN(C)C(=N[C@@H](CCCN)C(=O)*)N(C)C

Tests used:
S. typhimurium ATCC14028 = assay type: cell-based, Salmonella typhimurium
Method: (§1) The antimicrobial activity of peptides was determined by the microbroth dilution method ([Zhang et al., 2014]). The bacterial strains were incubated in Mueller-Hinton (MH) medium at 28°C or 37°C overnight. Bacteria (1 × 10^5 CFU/mL) were added into 96-well plates, followed by the addition of serial dilutions of peptides (from 0.0625 to 128 μg/mL). The plates were incubated at 37°C for 18–24 h. The minimal inhibitory concentration (MIC) value was determined as the lowest peptide concentration at which no bacterial growth was observed.

S. pullorum CVCC1789 = assay type: cell-based, Salmonella pullorum
Method: as §1

S. hyicus 15095 = assay type: cell-based, Staphylococcus hyicus
Method: as §1

[1] = system: Gram-negative and Gram-positive bacteria (ALL); assay: Geometric mean of MICs and therapeutic index; assay type: cell-based; settings: for GM ALL: geometric mean (GM) of MICs, all strains; for TI ALL: therapeutic index (TI), cell selectivity
Method: as §1
(§2) The geometric mean (GM) of MICs of peptides against Gram-negative and Gram-positive bacteria was calculated, and the result was shown in Table 3. […] For Gram-negative bacteria, the TI value of GUON6NH2 (53.33) was very close to N6NH2 (58.18), while for positive bacteria, the TI value of GUON6NH2 (12.8) was slightly higher than that of N6NH2 (12.31), indicating their huge therapeutic potential. For Gram-positive bacteria, DN6NH2 had the highest TI value and the best therapeutic potential.

Gram-negative bacteria = assay: Geometric mean of MICs and therapeutic index; assay type: cell-based; settings: for GM Gram-negative bacteria: geometric mean (GM) of MICs against Gram-negative bacteria; for TI Gram-negative bacteria: therapeutic index (TI), cell selectivity
Method: as §1, §2

Gram-positive bacteria = assay: Geometric mean of MICs and therapeutic index; assay type: cell-based; settings: for GM Gram-positive bacteria: geometric mean (GM) of MICs against Gram-positive bacteria; for TI Gram-positive bacteria: therapeutic index (TI), cell selectivity
Method: as §1, §2

E. tarda [2] = assay: Time-killing curve; assay type: cell-based, Edwardsiella tarda; settings: 2× or 4× MIC, MHB, 1 × 10^5 CFU/mL, 28°C
Method: Time-killing curve of peptides was performed according to the previous method ([Flamm et al., 2019]). E. tarda was cultured to logarithmic phase, diluted in Mueller Hinton broth (MHB) (1 × 10^5 CFU/mL) containing 1×, 2×, or 4× MIC of peptides, and cultured at 28°C (200 rpm). PBS was added as a control. Bacterial samples (100 μL) were removed at different time intervals (0, 0.5, 1, 1.5, 2, 4, 6, 8, 10, 12, 22, and 24 h) and were counted on MH solid plates. The time-killing curves of peptides were plotted. Bacterial cells treated with 2× MIC norfloxacin and without treatment were used as the positive and blank controls, respectively.

LPS = LPS binding, BODIPY-TR-cadaverine (BC) probe displacement; settings: 0.5 μM LPS, 5 μM BC, Tris buffer pH 7.4; peptides 0.049 to 50 μM
Method: The BODIPY’-TR-cadaverine (BC) probe was used to determine the ability of peptides to bind to LPS ([Wang et al., 2020]). 0.5 μM LPS was incubated with 5 μM BC in […] Tris buffer (pH 7.4) for 4 h at 37°C. Subsequently, the peptides were added into the mixture and the final concentrations of peptides ranged from 0.049 to 50 μM. Ampicillin was used as the negative control. Changes in fluorescence were measured by a fluorescence spectrophotometry at room temperature (excitation/emission, 580/620 nm).

E. tarda [3] = assay: SEM and TEM morphology; assay type: cell-based, Edwardsiella tarda; settings: 4× MIC, 2 h
Method: To further characterize the bactericidal effects of the peptides, scanning electron microscopy (SEM) and transmission electron microscopy (TEM) were used to visualize morphological changes ([Yang et al., 2019]). E. tarda was cultured to logarithmic growth stage (10^8 CFU/mL) and diluted with 0.01 M PBS (pH 7.4) to OD600 nm = 1. E. tarda cells were treated with 4× MIC peptides at 37°C for 2 h and the untreated cells were used as the control. Briefly, after centrifugation, the bacterial cells were washed three times with 0.1 M PBS (pH 7.2) and fixed overnight at 4°C with 2.5% glutaraldehyde. After washing again, the cells were fixed with 1% osmium tetroxide (OsO4) for 2 h and dehydrated in a graded ethanol series (50%–70%–85%–95% × 2–100%, × 2) for 15 min, respectively. The samples were then dried by CO2, sputtered with gold-palladium, and observed on a QUANTA200 SEM (FEI, Philips, Netherlands).
E. tarda cells were treated peptides before fixation as described above. The bacteria were washed with 0.01 M PBS (pH 7.4) for five times, 7 min each time, and fixed with 1% osmium acid buffer (4°C) for 1 h. After dehydration with a graded acetone series (30%–50%–70%–85%–95%–100% × 3), the cells were immersed in mixtures of acetone and resin (3:1, 1:1 and 1:3, respectively) for 40 min and in a pure epoxy resin overnight. The samples were then embedded in embedding medium and polymerized at 45°C for 3 h and at 65°C for 24 h, respectively. The sections were prepared using an ultramicrotome, stained with 1% uranyl acetate, and visualized by a JEM1400 (JEDL, Tokyo, Japan).

E. tarda [4] = assay: Mouse peritonitis model, survival; assay type: in vivo; settings: 1 μmoL/kg i.p. at 1 h postinfection, ICR mice, 5 days
Method: To establish a peritonitis mouse model, six-week-old female ICR mice (five mice/group) were intraperitoneally injected with E. tarda (1 × 10^9 CFU/mL, 0.5 mL). The infected mice were followed by the intraperitoneal injection of N6NH2, GUON6NH2 or norfloxacin (1 μmol/kg of body weight, 0.2 mL) at 1 h postinfection, respectively. Mice injected with only bacteria or PBS were used as negative or blank controls. The survival of mice was recorded daily for 5 days.

E. tarda [5] = assay: Mouse peritonitis model, bacterial counts in peritoneal fluid; assay type: in vivo; settings: 1 μmol/kg i.p., peritoneal fluid cells 24 h after treatment
Method: The mice were intraperitoneally infected with E. tarda (1 × 10^9 CFU/mL, 0.5 mL) and then injected with N6NH2 and GUON6NH2 (1 μmol/kg) or PBS (the blank control) in the same way at 1 h after infection. The mice were then killed at 24 h after treatment, and peritoneal fluids were obtained by washing with 5 mL of ice-cold PBS. The total number of E. tarda in the fluids was determined before any further procedures. For intracellular bacteria quantification, the other fraction was centrifuged for 5 min at 4°C (1,000 rpm). The cells were collected, treated with 1,000 μg/mL gentamicin for 30 min at 37°C to kill extracellular bacteria, and washed with ice-cold PBS twice to remove extracellular gentamicin. Subsequently, the cells were lysed and the bacteria were counted as described above for the in vitro experiment ([Kim et al., 2011]).

Row | SMILES | MIC (S. typhimurium ATCC14028) | MIC (S. pullorum CVCC1789) | MIC (S. hyicus 15095) | GM ALL [1] | TI ALL [1] | GM Gram-negative bacteria (Gram-negative bacteria) | TI Gram-negative bacteria (Gram-negative bacteria) | GM Gram-positive bacteria (Gram-positive bacteria) | TI Gram-positive bacteria (Gram-positive bacteria) | time to completely kill E. tarda (E. tarda [2]) | ability to bind to LPS (BC probe displacement) (LPS) | morphological changes by SEM (E. tarda [3]) | survival rate of mice (E. tarda [4]) | reduction of intracellular bacteria (E. tarda [5])
1 | CC(C)[C@@H]1NC(=O)CNC(=O)[C@H](CC(N)=O)NC(=O)[C@H](CCCNC(=N)N)NC(=O)[C@H](Cc2ccc(O)cc2)NC(=O)[C@H](C(C)C)NC(=O)[C@@H](NC(=O)[C@@H](NC(=O)[C@H](CC(N)=O)NC(=O)[C@H](Cc2c[nH]c3ccccc23)NC(=O)[C@H](C)NC(=O)[C@H](Cc2ccccc2)NC(=O)[C@H](CCCN)N=C(N(C)C)N(C)C)C(C)C)CSSC[C@@H](C(=O)N[C@@H](Cc2c[nH]cn2)C(=O)N[C@@H](CCCNC(=N)N)C(=O)N[C@@H](CCCNC(=N)N)C(=O)N[C@@H](C)C(=O)N[C@@H](CC(N)=O)C(N)=O)NC(=O)[C@H](C(C)C)NC(=O)[C@H](CCCNC(=N)N)NC1=O [GUON6NH2] ({Orn(α-tetramethylguanidino)}-FAWNVCVYRNGVRVCHRRAN-NH2; disulfide 6-15) | 4 µg/mL (≈ 1.52 µM) | 8 µg/mL (≈ 3.04 µM) | 4 µg/mL (≈ 1.52 µM) | 9.87 µg/mL | 25.94 | 4.8 µg/mL | 53.33 | 20 µg/mL | 12.8 | ≤ 6 h | V112N6NH2 > GUON6NH2 > N6NH2 > DN6NH2 > N6PNH2 | some protrusions were observed on the cell surfaces | 60% | 1.97 Log10 CFU
2 | CC(C)[C@@H]1NC(=O)CNC(=O)[C@H](CC(N)=O)NC(=O)[C@H](CCCNC(=N)N)NC(=O)[C@H](Cc2ccc(O)cc2)NC(=O)[C@H](C(C)C)NC(=O)[C@@H](NC(=O)[C@@H](NC(=O)[C@H](CC(N)=O)NC(=O)[C@H](Cc2c[nH]c3ccccc23)NC(=O)[C@H](C)NC(=O)[C@H](Cc2ccccc2)NC(=O)CN)C(C)C)CSSC[C@@H](C(=O)N[C@@H](Cc2cnc[nH]2)C(=O)N[C@@H](CCCNC(=N)N)C(=O)N[C@@H](CCCNC(=N)N)C(=O)N[C@@H](C)C(=O)N[C@@H](CC(N)=O)C(N)=O)NC(=O)[C@H](C(C)C)NC(=O)[C@H](CCCNC(=N)N)NC1=O [N6NH2] | 4 µg/mL (≈ 1.62 µM) | 8 µg/mL (≈ 3.23 µM) | 8 µg/mL (≈ 3.23 µM) | 9.87 µg/mL | 25.94 | 4.4 µg/mL | 58.18 | 20.8 µg/mL | 12.31 | ≤ 6 h | V112N6NH2 > GUON6NH2 > N6NH2 > DN6NH2 > N6PNH2 | some protrusions were observed on the cell surfaces | 80% | 1.54 Log10 CFU
